Assay results reported in patent US8067424B2, “Selective inhibitors for cyclin-dependent kinases” (Emory University, priority 2007, dated 2011).
Read-outs that look alike come from different tables or passages of the source.

Experiments:
Assay type in all cases: biochemical
[1] = target: T1, p38σ MAPK (Homo sapiens, UniProt O15264); experiment: Kinase screen: SAPK 4/p38d assay
T1 sequence (O15264 1-365): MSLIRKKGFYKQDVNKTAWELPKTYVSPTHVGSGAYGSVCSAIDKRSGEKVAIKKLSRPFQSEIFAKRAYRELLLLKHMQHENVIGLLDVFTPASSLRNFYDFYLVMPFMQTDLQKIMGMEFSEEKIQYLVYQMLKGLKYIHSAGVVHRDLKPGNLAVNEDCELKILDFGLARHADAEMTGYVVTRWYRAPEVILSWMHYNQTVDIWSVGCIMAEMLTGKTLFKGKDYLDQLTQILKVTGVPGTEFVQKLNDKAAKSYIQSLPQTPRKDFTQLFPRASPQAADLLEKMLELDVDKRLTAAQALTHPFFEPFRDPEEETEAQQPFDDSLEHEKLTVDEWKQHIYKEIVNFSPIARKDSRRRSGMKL
Protocol: (§1) Generally, the same procedure was used for all assays. Since the total assay volume was 25.5 microliters, 0.5 microliters of inhibitors at 51× assay concentration were added to the plates before any other addition.
(§2) The basic procedure was to add 0.5 microliters inhibitor/control in DMSO to plate. Fifteen microliters of enzyme/substrate/buffer mix were added and incubated for 5 min. Ten microliters MgATP at the relevant concentration were added and incubated for 30 min. The assay was stopped by adding 5 microliters of 3% orthophosphoric acid. The assay was transferred to a p81 filter plate and read in a scintillation counter of 30 sec/well. Note that this assay procedure was not followed for MKK1, which instead involved a two-step assay, and PKC alpha, which required the addition of lipid vesicles.
SAPK 4/p38d assay: SAPK 4/p38d (5-20 mU diluted in 50 mM Tris pH 7.5, 0.1 mM EGTA, 0.1 mM Na3VO4, 0.1% b-mercaptoethanol, 1 mg/ml BSA) was assayed against MBP in a final volume of 25.5 μl containing 25 mM Tris pH 7.5, 0.1 mM EGTA, 0.33 mg/ml MBP, 10 mM magnesium acetate and 0.005 mM [33P-g-ATP] (50-1000 cpm/pmole) and incubated for 30 min at room temperature. Assays were stopped by addition of 5 μl of 0.5 M (3%) orthophosphoric acid and then harvested onto P81 Unifilter plates with a wash buffer of 50 mM orthophosphoric acid.

[2] = target: PRK2 (Homo sapiens, UniProt Q16513); experiment: Kinase screen: PRK2 assay
Protocol: as §1, §2
PRK2 assay: 5-20 mU of PRK2 (diluted in 50 mM Tris (pH 7.5), 0.1 mM EGTA, 1 mg/ml BSA, 0.1%, b-Mercaptoethanol) was assayed against Long S6 peptide ([…]) (SEQ ID NO: 10) in a final volume of 25.5 μl containing 50 mM Tris (pH 7.5), 0.1 mM EGTA, 0.1%, b-Mercaptoethanol, 30 μM Long S6 peptide, 10 mM magnesium acetate and 0.005 mM [33P-g-ATP] (500-1000 cpm/pmole) and incubated for 30 mins at room temperature. Assays were stopped by addition of 5 μl of 0.5M (3%) orthophosphoric acid. Assays were harvested onto P81 Unifilter plates using a wash buffer of 50 mM orthophosphoric acid.

[3] = target: MNK2 (Homo sapiens, UniProt Q9HBH9); experiment: Kinase screen: MNK2 alpha assay
Protocol: as §1, §2
MNK2 alpha assay: 5-20 mU of MNK2 (diluted in 50 mM Tris (pH 7.5), 0.1 mM EGTA, 1 mg/ml BSA, 0.1%, b-Mercaptoethanol) was assayed against substrate peptide (eIF4E) in a final volume of 25.5 μl containing 50 mM Tris (pH 7.5), 0.1 mM EGTA, 0.1%, b-Mercaptoethanol, 0.5 mg/ml substrate peptide, 10 mM magnesium acetate and 0.05 mM [33P-g-ATP](500-1000 cpm/pmole) and incubated for 30 mins at room temperature. Assays were stopped by addition of 5 μl of 0.5M (3%) orthophosphoric acid. Assays were harvested onto P81 Unifilter plates using a wash buffer of 50 mM orthophosphoric acid.

[4] = test system: PHK; experiment: Kinase screen: PBK assay (phosphorylase b peptide); details: for mean activity remaining (as a percentage of the original activity), PHK: 10 micromolar compound
Protocol: as §1, §2
PBK assay: PBK (5-20 mU diluted in 50 mM Na-b-glycerophosphate pH 7.0, 0.1% b-mercaptoethanol) was assayed against phosphorylase b peptide ([…]) (SEQ ID NO: 14) in a final volume of 25.5 μl containing 50 mM Tris pH 8.6, 50 mM Na-b-glycerophosphate, 0.04 mM CaCl2, phosphorylase b peptide (0.196 mM), 10 mM magnesium acetate, 0.02 mM [33P-g-ATP] (500-1000 cpm/pmole) then incubated for 15 min at room temperature. Assays were stopped by addition of 5 μl of 0.5 M (3%) orthophosphoric acid and then harvested onto P81 Unifilter plates with a wash buffer of 50 mM orthophosphoric acid.

[5] = target: IRR (Homo sapiens, UniProt P14616); experiment: Kinase screen: IRR assay; details: 10 micromolar compound; for remaining activity at 10 µM: read-out: mean activity remaining (as a percentage of the original activity), IRR
Protocol: as §1, §2
(§3) IRR assay: 5-20 mU of IRR (diluted in 50 mM Hepes (pH 7.5), 0.1 mM EGTA) was assayed against MBP in a final volume of 25.5 μl containing 50 mM Hepes (pH 7.5), 0.1 mM EGTA, 0.33 mg/ml MBP, 10 mM magnesium acetate and 0.005 mM [33P-g-ATP](500-1000 cpm/pmole) and incubated for 30 mins at room temperature. Assays were stopped by addition of 5 μl of 0.5M (3%) orthophosphoric acid. Assays were harvested onto P81 Unifilter plates using a wash buffer of 50 mM orthophosphoric acid.

[6] = target: MST4 (Homo sapiens, UniProt Q9P289); experiment: Kinase screen: MST4 assay; details: 10 micromolar compound; for remaining activity at 10 µM: read-out: mean activity remaining (as a percentage of the original activity), MST4
Protocol: as §1, §2
as §3, with “MST4” for “IRR”, “Tris” for “Hepes”, “0.02” for “0.005”, “[33P-g-ATP] (500-1000” for “[33P-g-ATP](500-1000”

[7] = 10 micromolar compound, read-out: mean activity remaining (as a percentage of the original activity), p38s MAPK
[8] = 10 micromolar compound, read-out: mean activity remaining (as a percentage of the original activity), PRK2
[9] = 10 micromolar compound, read-out: mean activity remaining (as a percentage of the original activity), MNK2

| SMILES | remaining activity at 10 µM [1, 7] [%] | remaining activity at 10 µM [2, 8] [%] | remaining activity at 10 µM [3, 9] [%] | mean activity remaining (as a percentage of the original activity), PHK [4] [%] | remaining activity at 10 µM [5] [%] | remaining activity at 10 µM [6] [%] | mean activity remaining (as a percentage of the original activity), p38s MAPK ([1]; 10 micromolar compound) [%] | mean activity remaining (as a percentage of the original activity), PRK2 ([2]; 10 micromolar compound) [%] | mean activity remaining (as a percentage of the original activity), MNK2 ([3]; 10 micromolar compound) [%] | mean activity remaining (as a percentage of the original activity), IRR [5] [%] | mean activity remaining (as a percentage of the original activity), MST4 [6] [%] | remaining activity at 10 µM ([1]; p38σ MAPK, 10 μM, read-out: Mean Remaining Enzyme Activity (%)) [%] | remaining activity at 10 µM ([2]; PRK2, 10 μM, read-out: Mean Remaining Enzyme Activity (%)) [%] | remaining activity at 10 µM ([3]; MNK2, 10 μM, read-out: Mean Remaining Enzyme Activity (%)) [%] | Mean Remaining Enzyme Activity (%) ([4]; PHK, 10 μM) |
| --- | --- | --- | --- | --- | --- | --- | --- | --- | --- | --- | --- | --- | --- | --- | --- |
| CC[C@H](CO)Nc1cc(NCc2ccccc2)n2ncc(C(C)C)c2n1 [ICEC0067] | 86 | 96 | 84 | 68 | 23 | 103 |  |  |  |  |  |  |  |  |  |
| CC(C)c1cnn2c(NCc3ccccc3F)cc(NCCCCCN)nc12 [ICEC-0232] |  |  |  | 10 |  |  | 78 | 106 | 88 | 29 | 85 |  |  |  |  |
| CC(C)c1cnn2c(NCc3ccccc3)cc(NCCCCCCCN)nc12 [BS-181] |  |  |  |  |  |  |  |  |  |  |  | 96 | 90 | 105 | 49 |
| CC(C)c1cnn2c(NCc3ccccc3)cc(N[C@@H](CO)[C@H](O)CO)nc12 [ICEC0318, (3S)-3-(7-(Benzylamino)-3-isopropylpyrazolo[1,5-a]pyrimidin-5-ylamino)butane-1,2,4-triol] | 86 | 106 | 136 | 62 | 32 | 92 |  |  |  |  |  |  |  |  |  |
| C=C[C@H](CO)Nc1cc(NCc2ccccc2)n2ncc(C(C)C)c2n1 [ICEC0065] | 86 | 105 | 83 | 68 | 24 | 91 |  |  |  |  |  |  |  |  |  |
